# Patent US20230107598A1, “SORGHUM DOUBLED HAPLOID […]” (PIONEER HI-BRED INTERNATIONAL, INC., priority 2020, published 2023)
# Test system: haploid sorghum plants
# Experiment: Chromosome doubling of haploid sorghum plants by root treatment with colchicine
# Type: in vivo
# Conditions: colchicine 0.05%, 5 hours, roots
# Source text: Plants from diploid sorghum genotypes, “PHI01”, “PHI02”, “PHI03”, “PHI04”, “PHI05”, “PHI06”, “PHI07”, “PHI08”, “PHI09”, “PHI10”, “PHI11”, “PHI12”, “PHI13”, “PHI14”, “PHI15”, “PHI16”, “PHI17”, “PHI18”, “PHI19”, and “PHI20” were pollinated with pollen obtained from pearl millet line PHI01A, as described in Example 2. Immature haploid embryos were isolated, as described in Example 2, 10-20 days after pollination and embryo sizes ranged from 0.1-3 mm long. These haploid embryos were germinated on a medium (see Table 4) in the dark. The germinated haploid embryos were then transferred to fresh media for an additional 7-10 days at 21°−26° C. in the dark until germinated plantlets formed. The germinated plantlets were then transferred to a light culture room and grown at 21°−26° C. for another 2-3 weeks until healthy plantlets having good roots developed. These plantlets were then potted into soil and grown in a regular greenhouse for 5-6 weeks. Upon healthy plant establishment, the roots were treated with a chromosome doubling agent, colchicine, for 5 hours in the dark. Additional chromosome doubling agents for example, pronamide, dithipyr, oryzalin, AMP, and trifluralin, or any of the other chromosome doubling agents referenced in Table 1 can also be used. After treatment with the doubling agent, the roots were then thoroughly rinsed with running water for 30 min, to remove the residual doubling agent and then potted in soil and grown to maturity.
# [1] = PHI01/2018, 15 haploid plants treated
# [2] = PHI02/2018, 63 haploid plants treated
# [3] = PHI02/2019, 17 haploid plants treated
# [4] = PHI02/2020, 13 haploid plants treated
# [5] = PHI03/2018, 20 haploid plants treated
# [6] = PHI04/2018, 9 haploid plants treated
# [7] = PHI05/2018, 3 haploid plants treated
# [8] = PHI05/2019, 4 haploid plants treated
# [9] = PHI05/2020, 1 haploid plant treated
# [10] = PHI06/2018, 24 haploid plants treated
# [11] = PHI07/2018, 24 haploid plants treated
# [12] = PHI08/2018, 2 haploid plants treated
# [13] = PHI09/2018, 8 haploid plants treated
# [14] = PHI09/2019, 14 haploid plants treated
# [15] = PHI09/2020, 10 haploid plants treated
# [16] = PHI10/2018, 38 haploid plants treated
# [17] = PHI10/2019, 36 haploid plants treated
# [18] = PHI10/2020, 25 haploid plants treated
# [19] = PHI11/2019, 2 haploid plants treated
# [20] = PHI11/2020, 2 haploid plants treated
# [21] = PHI12/2019, 8 haploid plants treated
# [22] = PHI12/2020, 1 haploid plant treated
# [23] = PHI13/2019, 30 haploid plants treated
# [24] = PHI13/2020, 18 haploid plants treated
# [25] = PHI14/2019, 53 haploid plants treated
# [26] = PHI14/2020, 14 haploid plants treated
# [27] = PHI15/2019, 15 haploid plants treated
# [28] = PHI15/2020, 5 haploid plants treated
# [29] = PHI16/2019, 27 haploid plants treated
# [30] = PHI17/2020, 4 haploid plants treated
# [31] = PHI18/2020, 6 haploid plants treated
# [32] = PHI19/2020, 23 haploid plants treated
# [33] = PHI20/2020, 9 haploid plants treated
# [34] = Sum of all genotypes/years, 543 haploid plants treated
structure (smiles),measurement,setting,value
"COc1cc2c(c(OC)c1OC)-c1ccc(OC)c(=O)cc1[C@@H](NC(C)=O)CC2 [Colchicine, (S)-N-(5,6,7,9-tetrahydro-1,2,3,10-tetramethoxy-9-oxobenzo (a)heptalen-7-yl) acetamide]",DH Success rate (%),[1],100%
same,Number of Fully Fertile DH plants,[1],15
same,Number of plants survived after treatment,[1],15
same,DH Success rate (%),[2],98%
same,Number of Fully Fertile DH plants,[2],62
same,Number of plants survived after treatment,[2],62
same,DH Success rate (%),[3],100%
same,Number of Fully Fertile DH plants,[3],17
same,Number of plants survived after treatment,[3],17
same,DH Success rate (%),[4],100%
same,Number of Fully Fertile DH plants,[4],13
same,Number of plants survived after treatment,[4],13
same,DH Success rate (%),[5],100%
same,Number of Fully Fertile DH plants,[5],20
same,Number of plants survived after treatment,[5],20
same,DH Success rate (%),[6],100%
same,Number of Fully Fertile DH plants,[6],9
same,Number of plants survived after treatment,[6],9
same,DH Success rate (%),[7],100%
same,Number of Fully Fertile DH plants,[7],3
same,Number of plants survived after treatment,[7],3
same,DH Success rate (%),[8],100%
same,Number of Fully Fertile DH plants,[8],4
same,Number of plants survived after treatment,[8],4
same,DH Success rate (%),[9],100%
same,Number of Fully Fertile DH plants,[9],1
same,Number of plants survived after treatment,[9],1
same,DH Success rate (%),[10],100%
same,Number of Fully Fertile DH plants,[10],24
same,Number of plants survived after treatment,[10],24
same,DH Success rate (%),[11],96%
same,Number of Fully Fertile DH plants,[11],23
same,Number of plants survived after treatment,[11],23
same,DH Success rate (%),[12],100%
same,Number of Fully Fertile DH plants,[12],2
same,Number of plants survived after treatment,[12],2
same,DH Success rate (%),[13],100%
same,Number of Fully Fertile DH plants,[13],8
same,Number of plants survived after treatment,[13],8
same,DH Success rate (%),[14],93%
same,Number of Fully Fertile DH plants,[14],13
same,Number of plants survived after treatment,[14],14
same,DH Success rate (%),[15],100%
same,Number of Fully Fertile DH plants,[15],10
same,Number of plants survived after treatment,[15],10
same,DH Success rate (%),[16],100%
same,Number of Fully Fertile DH plants,[16],38
same,Number of plants survived after treatment,[16],38
same,DH Success rate (%),[17],97%
same,Number of Fully Fertile DH plants,[17],35
same,Number of plants survived after treatment,[17],35
same,DH Success rate (%),[18],100%
same,Number of Fully Fertile DH plants,[18],25
same,Number of plants survived after treatment,[18],25
same,DH Success rate (%),[19],100%
same,Number of Fully Fertile DH plants,[19],2
same,Number of plants survived after treatment,[19],2
same,DH Success rate (%),[20],100%
same,Number of Fully Fertile DH plants,[20],2
same,Number of plants survived after treatment,[20],2
same,DH Success rate (%),[21],100%
same,Number of Fully Fertile DH plants,[21],8
same,Number of plants survived after treatment,[21],8
same,DH Success rate (%),[22],100%
same,Number of Fully Fertile DH plants,[22],1
same,Number of plants survived after treatment,[22],1
same,DH Success rate (%),[23],100%
same,Number of Fully Fertile DH plants,[23],30
same,Number of plants survived after treatment,[23],30
same,DH Success rate (%),[24],100%
same,Number of Fully Fertile DH plants,[24],18
same,Number of plants survived after treatment,[24],18
same,DH Success rate (%),[25],98%
same,Number of Fully Fertile DH plants,[25],52
same,Number of plants survived after treatment,[25],52
same,DH Success rate (%),[26],93%
same,Number of Fully Fertile DH plants,[26],13
same,Number of plants survived after treatment,[26],13
same,DH Success rate (%),[27],100%
same,Number of Fully Fertile DH plants,[27],15
same,Number of plants survived after treatment,[27],15
same,DH Success rate (%),[28],100%
same,Number of Fully Fertile DH plants,[28],5
same,Number of plants survived after treatment,[28],5
same,DH Success rate (%),[29],100%
same,Number of Fully Fertile DH plants,[29],27
same,Number of plants survived after treatment,[29],27
same,DH Success rate (%),[30],100%
same,Number of Fully Fertile DH plants,[30],4
same,Number of plants survived after treatment,[30],4
same,DH Success rate (%),[31],100%
same,Number of Fully Fertile DH plants,[31],6
same,Number of plants survived after treatment,[31],6
same,DH Success rate (%),[32],100%
same,Number of Fully Fertile DH plants,[32],23
same,Number of plants survived after treatment,[32],23
same,DH Success rate (%),[33],100%
same,Number of Fully Fertile DH plants,[33],9
same,Number of plants survived after treatment,[33],9
same,DH Success rate (%),[34],99%
same,Number of Fully Fertile DH plants,[34],537
same,Number of plants survived after treatment,[34],538
